Experimental data: patent US12492223B2, “Peptide compositions capable of binding lanthionine synthetase C-like protein (LanCl) and uses thereof” (priority 2021, dated 2025)
Positions of bridges follow the written chain, without caps; N, C: chain ends. Residues, ends and D or L forms follow the SMILES beside them. No end group written: not given here.

Experiments:
HKx31 (H3N2) = format: in vivo, mice; set-up: key to PMN activity score / Viral titre activity score / BAL IL-6 activity score: 0: inactive; 1: less active than the peptide of SEQ ID NO:38; 2: comparable or more active than the peptide of SEQ ID NO:38
Chung rats = test: In vivo model of neuropathic pain (Chung model, Example 4); set-up: species or system rat; settings: oral, subcutaneous and/or intramuscular administration
Text: This study was undertaken to assess the analgesic effect of the peptides described herein on neuropathic pain in vivo using a nerve constriction model in Chung rats. Briefly, adult male Sprague-Dawley rats, 8-9 weeks old, weighing 220-250 g at the time of surgery, were purchased from Charles River UK Ltd.
The animals were housed in groups of 4 in an air-conditioned room on a 12-hour light/dark cycle. Food and water were available ad libitum. They were allowed to acclimatise to the experimental environment for three days by leaving them on a raised metal mesh for at least 40 min. The baseline paw withdrawal threshold (PWT) was examined using a series of graduated von Frey hairs for 3 consecutive days before surgery and re-assessed on the 6th to 8th day after surgery and on the 12th to 14th day after surgery before drug dosing.
Each rat was anaesthetized with 5% isoflurane mixed with oxygen (2 L per min) followed by an intramuscular (i.m.) injection of ketamine 90 mg/kg plus xylazine 10 mg/kg. The back was shaved and sterilized with povidone-iodine. The animal was placed in a prone position and a para-medial incision was made on the skin covering the L4-6 level. The L5 spinal nerve was carefully isolated and tightly ligated with 6/0 silk suture. The wound was then closed in layers after a complete hemostasis. A single dose of antibiotics (Amoxipen, 15 mg/rat, i.p.) was routinely given for prevention of infection after surgery. The animals were placed in a temperature-controlled recovery chamber until fully awake before being returned to their home cages.
The vehicle (1% DMSO in PBS) or peptide was administrated intramuscularly (i.m.) into the leg of the side contralateral to the site of injury. Dosing was carried out by a second experimenter. […]
Each group had 8 animals. […] The lowest amount of force required to induce reliable responses (positive in 3 out of 5 trials) was recorded as the value of PWT.
The drug test was carried out on the 12th to 14th day after surgery. PWT were assessed before, 1, 2 and 4 hours following drug or vehicle administration. […]

A549 cells = test: A549 proliferation + stress assay (restoration of viability of Taxol-treated cells, CellTiter-Glo); format: cell-based, human; settings: for Estimated Activity in A549 proliferation + stress assay: 350 μM Taxol, 16 hours, peptide 1-100 μM
Description: An assay was developed that involves stressing cells with a dose of the chemotherapeutic agent, Taxol, that causes a 50% inhibition of cell viability when compared to untreated cells. Peptides were then added to the cell cultures at increasing concentrations to assess their ability to restore the viability of the Taxol-treated cells.
Briefly, A549 cells were cultured in opaque-walled multiwell plates with 50000 A549 cells/well in culture medium (DMEM medium ref 11960-044 Thermoscientific, +10% FBS ref 10270-106 Gibco, Thermoscientific, +1% Na pyruvate ref S8636-100 ML, Sigma, +1%, Glutamax ref35050061, Thermoscientific, +1% Penicillin-Streptomycin, ref 11074440001, Sigma) 100 μl per well for 96-well plates. Control wells containing medium without cells were used to obtain a value for background luminescence. Cells were incubated at 37° C. in 5% CO2 overnight.
100 μL of medium+DMSO+peptides or medium+Taxol+peptides (at the different concentrations) were added to each well and incubated for 16 hours at 37° C. 5% CO2.
Cell morphology, viability and confluency were assessed by phase contrast microscopy. The CellTiter-Glo® Luminescent Cell Viability Assay (G7571, Promega—a homogeneous method to determine the number of viable cells in culture based on quantitation of the ATP present) was then used to quantify the number of metabolically active cells, according to the manufacturer's instructions. 100 μl volume of CellTiter-Glo® Reagent was added to the 100 μL volume of cell culture medium present in each well, Contents were mixed for 2 minutes on an orbital shaker to induce cell lysis and after incubating the plates at room temperature for 10 minutes to stabilize luminescent signal luminescence was recorded with an integration time of 0.5 seconds using a CLARIOstar multi well luminometer (BMG Labtech)

[1] = target: recombinant LanCL1 (rLanCL1) (Homo sapiens, UniProt O43813); test: biochemical; format: binding
recombinant LanCL1 (rLanCL1), sequence (O43813 whole entry, species assumed): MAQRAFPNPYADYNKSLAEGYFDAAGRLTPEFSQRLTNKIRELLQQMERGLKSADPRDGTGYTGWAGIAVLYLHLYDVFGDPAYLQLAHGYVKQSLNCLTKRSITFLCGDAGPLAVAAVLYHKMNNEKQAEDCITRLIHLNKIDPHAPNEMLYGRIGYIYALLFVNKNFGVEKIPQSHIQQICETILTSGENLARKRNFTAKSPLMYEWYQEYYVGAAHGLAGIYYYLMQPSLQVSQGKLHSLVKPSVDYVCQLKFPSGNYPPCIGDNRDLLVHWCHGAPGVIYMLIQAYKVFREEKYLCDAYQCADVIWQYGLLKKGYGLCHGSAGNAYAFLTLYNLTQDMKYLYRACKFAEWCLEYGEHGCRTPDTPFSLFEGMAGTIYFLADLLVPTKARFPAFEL
Description: Dry pellets of LANCL1 previously photolabelled with photoprobes in the presence of different peptides or PBS/DMSO vehicle were resuspended in 30 μL SDS loading buffer (Bio Rad's XT Sample Buffer containing 2.5% v/v 2-mercaptoethanol) and heated (60° C., 30 min). Proteins were resolved using SDS-PAGE (4-15% Criterion™ TGX Stain-Free™ Protein Gel, Bio Rad) and analyzed by in-gel fluorescence scanning using a ChemiDoc™ MP Imaging System (Bio Rad) with a green LED light as an excitation source and a BP600/20 nm emission filter. After in-gel fluorescence scanning, gels were stained with Coomassie blue to ensure the same amount of protein sample was loaded in each lane and imaged with the ChemiDoc™ MP Imaging System. Photoincorporation of each photoprobe in LANCL1 was quantitatively assessed by measuring the fluorescent intensity of the corresponding gel band using Image lab software (Bio Rad) and normalizing this value against the intensity value of LANCL1 gel band stained with Coomassie blue to control for loading differences.
(SEQ ID NO:22) from recombinant LanCL1 (rLanCL1).

| Molecule | neuropathic pain in the Chung model (Chung rats) | EC50 [1] | further results |
| --- | --- | --- | --- |
| 2 (CRSVEGSCGF; disulfide 1-8) [compound 2] | reduced neuropathic pain |  | PMN activity score (HKx31 (H3N2); mouse, in vivo, 10 mg/kg): 2; reducing the PMN infiltrate in BAL fluid, compared with the peptide of SEQ ID NO:38 (HKx31 (H3N2); single 10 mg/kg dose): as effective |
| 10 (SCRSRPVESSC; disulfide 2-11) [compound 10] | reduced neuropathic pain |  | Estimated Activity in A549 proliferation + stress assay (A549 cells): STRONG (clear dose-dependent restoration of cell viability from 1-5 μM upwards); restoration of A549 viability (A549 cells; Taxol-treated A549 cells): restore A549 viability |
| CC(C)[C@@H]1NC(=O)[C@H](CO)NC(=O)[C@H](CCCNC(=N)N)NC(=O)[C@@H](N)CSSC[C@@H](C(=O)NCC(=O)O)NC(=O)[C@H](CO)NC(=O)CNC(=O)[C@H](CCC(=O)O)NC1=O [compound 3] (H-CRSVEGSCG-OH; disulfide 1-8; N-terminus and C-terminus assumed) | reduced neuropathic pain | ~150 µM |  |
| CC(C)[C@@H]1NC(=O)[C@@H]2CCCN2C(=O)[C@H](CCCNC(=N)N)NC(=O)[C@H](CO)NC(=O)[C@H](CCCNC(=N)N)NC(=O)[C@@H](N)CSSC[C@@H](C(=O)N[C@@H](CO)C(=O)O)NC(=O)[C@H](CO)NC(=O)[C@H](CO)NC(=O)[C@H](CCC(=O)O)NC1=O [compound 14] (H-CRSRPVESSCS-OH; disulfide 1-10; N-terminus and C-terminus assumed) |  | ~100 µM | Estimated Activity in A549 proliferation + stress assay (A549 cells): STRONG (clear dose-dependent restoration of cell viability from 1-5 μM upwards) |
| CC[C@H](C)[C@@H]1NC(=O)[C@H](CCCNC(=N)N)NC(=O)[C@@H](N)CSSC[C@@H](C(=O)O)NC(=O)[C@H](CC(N)=O)NC(=O)[C@H](CC(N)=O)NC(=O)[C@H](CC(N)=O)NC(=O)[C@H](Cc2c[nH]cn2)NC(=O)[C@H]([C@@H](C)CC)NC1=O [compound 24] (H-CRIIHNNNC-OH; disulfide 1-9) |  | 100 to 200 µM |  |
| CC(C)C[C@@H]1NC(=O)[C@H](C)NC(=O)[C@H](CCCNC(=N)N)NC(=O)[C@H](CCC(=O)O)NC(=O)[C@H](CC(C)C)NC(=O)[C@H](CCC(N)=O)NC(=O)[C@H](CCC(=O)O)NC(=O)[C@H](CCC(N)=O)NC(=O)[C@@H](N)CSSC[C@@H](C(=O)O)NC(=O)[C@H](CO)NC(=O)[C@H](CO)NC(=O)[C@H](CC(N)=O)NC1=O [compound 38] (H-CQEQLERALNSSC-OH; disulfide 1-13) |  | 50 to 100 µM |  |
| CC(C)C[C@@H]1NC(=O)[C@H](C)NC(=O)[C@H](CCCNC(=N)N)NC(=O)[C@@H](N)CSSC[C@@H](C(=O)O)NC(=O)[C@H](CO)NC(=O)[C@H](CO)NC(=O)[C@H](CC(N)=O)NC1=O [compound 40] (H-CRALNSSC-OH; disulfide 1-8) |  | 50 to 100 µM |  |
| QEQLERALNSS [compound 37] |  | 100 to 200 µM |  |
| RALNSS [compound 39] |  | > 200 µM |  |
